According to patent US20090036528A1 (priority 2007, published 2009):
Values belong to the compound of their own block, whether it stands above or below them. Where a SMILES comes first, the peptide text is derived from it.

Assays:
[1] = test system: Stratum Corneum Tryptic Enzyme (SCTE); conditions: reported rosacea study; cited from earlier work
[2] = FUTHAN compared with aprotinin and AEBSF; cited from earlier work
[3] = test system: various serine proteases; test: inhibition of various serine proteases compared with known inhibitors; assay type: biochemical; conditions: FIG. 3
[4] = test system: total protease activity in skin extracts; test: inhibition of total protease activity in skin extracts; assay type: biochemical, human; conditions: skin extracts from three individuals; FIG. 2
[5] = biological target: chymotrypsin (Bos taurus, UniProt P00766); conditions: literature (Niinobe et al., Fujii et al.); cited from earlier work
[6] = biological target: KLK7/SCCE (Homo sapiens, UniProt P49862); test: enzyme inhibition KLK7/SCCE; assay type: biochemical; conditions: approximate; read-out: IC50 (50% inhibition) KLK7/SCCE
Description: (§1) It is understood that aspartame, FUTHAN, and combinations thereof may be utilized.

[7] = biological target: pancreatic kallikrein (Homo sapiens, UniProt P06870); test: enzyme inhibition pancreatic kallikrein; assay type: biochemical; conditions: approximate; read-out: IC50 (50% inhibition) pancreatic kallikrein
[8] = biological target: T1, KLK5/SCTE (Homo sapiens, UniProt Q9Y337); test: enzyme inhibition KLK5/SCTE; assay type: biochemical; conditions: approximate; read-out: IC50 (50% inhibition) KLK5/SCTE
T1 sequence (Q9Y337 23-293): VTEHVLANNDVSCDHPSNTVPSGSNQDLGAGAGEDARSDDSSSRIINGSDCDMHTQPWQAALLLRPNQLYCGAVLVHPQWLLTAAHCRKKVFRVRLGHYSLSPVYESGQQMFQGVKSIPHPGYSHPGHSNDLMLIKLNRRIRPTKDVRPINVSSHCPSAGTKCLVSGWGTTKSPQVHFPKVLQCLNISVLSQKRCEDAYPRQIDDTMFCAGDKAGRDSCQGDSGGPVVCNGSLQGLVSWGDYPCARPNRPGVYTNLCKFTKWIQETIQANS
Description: as §1

[9] = chronic anemia patients using fruit flavored drink with aspartame; assay type: in vivo, human; conditions: fruit flavored drink combination with aspartame
Description: The current invention may utilize a pharmaceutically effective amount of aspartame or Asp-Phe for the treatment of sickle cell anemia and or chronic anemia in general. […] It is also contemplated that the current invention may be utilized as a food supplement product with beneficial attributes to chronic anemia patients which may include most cancer patients under treatment.

[10] = bone density in human subjects ingesting aspartame (bone scans, dental records); conditions: subject
[11] = aspartame lotion on acetic acid burn; assay type: in vivo, human; conditions: lotion application; burn from acetic acid spilled on an individual's leg
Description: It is also contemplated that the current invention may also help the redness of the skin and/or promote healing for the same injury.

[12] = pigs fed aspartame over a two month period: bleeding time and platelet count; assay type: in vivo; conditions: pigs fed 75-300 mg aspartame/100 weight/day over a two month period
Description: Recent chemical evidence has documented the mechanism of the analgesia and blood thinning properties of ASP as attributable in part to the compound's ability to inhibit the cyclo-oxygenase enzymes known as COX-1 and COX-2. […] It is contemplated that a preferred embodiment may use a coated tablet or pill that may prevent or reduce hydrolysis of the aspartame ester group in the acidic conditions of the stomach.

[13] = test system: SRT-ORT mouse model; test: SRT-ORT osteoarthritis mouse model, aspartame chow, X-ray analyses; assay type: in vivo; conditions: chow containing 4 mg Aspartame/g, 12-18 months, vs non-supplemented chow
Description: It has been reported that isotopically labeled Aspartame/Asp-Phe distributes to various tissues including the bones (See Aspartame Physiology and Biochemistry, Ed. Stegink, Lewis, D. and Filner, L. J. (1984), Marcel Decker, NY, Chapter 8, “Tissue Distribution of Orally Administered Isotopically Labeled Aspartame in Rat.” By Matsuzawa, Y., O'Hara, Y., pp. 161-199.). It is well established that the ester group on aspartame is labile to both acid hydrolysis, as exists in the stomach, and to enzyme esterases that are common to all body fluids and tissues. […] It is contemplated that this mechanism will enhance the transfer of essential minerals from the digestive system to the blood, tissues, and cells. Further evidence that aspartame (Asp-Phe) ingestion contributes to muscle (tissue) density and bone density enhancement comes from mouse studies. The SRT-ORT mouse model is a genetically deficient mouse strain obtained from NIH with a natural history of developing osteoarthritis. Blinded experiments were conducted with littermates divided into two groups, one fed chow containing 4 mg Aspartame/g. and the other fed non-supplemented chow over a period of 12-18 months. X-ray analyses were performed on the cortex and marrow spaces of the right and left femurs, as well as the quadriceps in the femoris area and joint calcification. […] The increase in calcification in the treated animal cohort at the injured joints gave a P value <0.0001. An unexpected increase in quadriceps muscle mass index for the treated animals gave a P value of 0.0185. These analyses were preformed on an n value of 23 animals in the treated set and 18 animals in the controls. Therefore, it is contemplated that animals fed aspartame over an extended time period have increased bone density and muscle mass indicating increased or enhanced calcium, and perhaps other minerals, bioavailability and utility.

[14] = biological target: COX-1 (Homo sapiens, UniProt P23219); test: COX-1 enzyme inhibition
[15] = biological target: T2, COX-2 (Homo sapiens, UniProt P35354); test: COX-2 enzyme inhibition
T2 sequence (P35354 18-604): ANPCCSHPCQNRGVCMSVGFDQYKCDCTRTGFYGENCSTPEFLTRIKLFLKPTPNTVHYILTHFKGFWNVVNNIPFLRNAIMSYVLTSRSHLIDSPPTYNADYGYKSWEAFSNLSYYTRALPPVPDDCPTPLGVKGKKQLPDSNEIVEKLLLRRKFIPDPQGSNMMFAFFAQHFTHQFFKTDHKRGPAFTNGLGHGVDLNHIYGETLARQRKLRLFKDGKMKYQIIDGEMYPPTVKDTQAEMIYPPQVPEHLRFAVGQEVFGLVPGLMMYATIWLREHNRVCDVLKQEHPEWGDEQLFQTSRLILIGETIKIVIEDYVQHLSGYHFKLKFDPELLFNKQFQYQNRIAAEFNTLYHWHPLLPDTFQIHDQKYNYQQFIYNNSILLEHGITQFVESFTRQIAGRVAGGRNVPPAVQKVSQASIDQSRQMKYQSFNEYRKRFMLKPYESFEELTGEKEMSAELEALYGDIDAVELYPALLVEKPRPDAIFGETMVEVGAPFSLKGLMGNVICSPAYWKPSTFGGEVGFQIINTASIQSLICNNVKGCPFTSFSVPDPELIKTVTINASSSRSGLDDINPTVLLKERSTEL

[16] = in excess of 300 mg/day for several years

Sequence of pancreatic kallikrein (P06870 25-262): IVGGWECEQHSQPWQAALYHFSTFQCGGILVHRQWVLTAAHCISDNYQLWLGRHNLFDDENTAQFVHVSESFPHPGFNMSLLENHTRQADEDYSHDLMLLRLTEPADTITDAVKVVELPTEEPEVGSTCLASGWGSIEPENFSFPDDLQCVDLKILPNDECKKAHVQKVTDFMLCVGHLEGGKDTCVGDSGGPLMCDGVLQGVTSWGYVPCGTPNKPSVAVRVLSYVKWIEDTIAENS
Sequence of KLK7/SCCE (P49862 30-253): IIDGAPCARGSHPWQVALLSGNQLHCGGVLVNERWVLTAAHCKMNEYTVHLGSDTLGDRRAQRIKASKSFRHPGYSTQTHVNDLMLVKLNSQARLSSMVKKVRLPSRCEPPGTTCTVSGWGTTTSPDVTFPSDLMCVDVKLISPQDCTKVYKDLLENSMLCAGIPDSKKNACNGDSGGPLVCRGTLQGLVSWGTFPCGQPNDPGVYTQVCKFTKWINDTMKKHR
Sequence of COX-1 (P23219 24-599): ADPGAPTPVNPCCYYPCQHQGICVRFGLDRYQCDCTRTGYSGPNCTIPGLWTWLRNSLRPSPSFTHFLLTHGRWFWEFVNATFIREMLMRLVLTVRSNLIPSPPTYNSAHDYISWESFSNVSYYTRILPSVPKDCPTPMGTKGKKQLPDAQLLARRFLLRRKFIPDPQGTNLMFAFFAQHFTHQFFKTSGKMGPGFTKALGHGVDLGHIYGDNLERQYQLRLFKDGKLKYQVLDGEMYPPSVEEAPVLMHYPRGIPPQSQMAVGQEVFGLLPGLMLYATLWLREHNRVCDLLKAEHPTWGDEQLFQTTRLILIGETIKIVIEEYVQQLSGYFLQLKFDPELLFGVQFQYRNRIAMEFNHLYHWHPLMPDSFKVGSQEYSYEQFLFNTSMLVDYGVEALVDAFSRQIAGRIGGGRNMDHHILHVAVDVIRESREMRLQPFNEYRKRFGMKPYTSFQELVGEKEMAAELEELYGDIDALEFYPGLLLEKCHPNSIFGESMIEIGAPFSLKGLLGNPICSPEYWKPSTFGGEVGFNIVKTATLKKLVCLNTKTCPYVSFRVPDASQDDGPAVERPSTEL

Compound: NCCc1ccc(S(=O)(=O)F)cc1 [AEBSF, 4-(2-aminoethyl)-benzenesulfonyl fluoride]
- inhibition of SCTE [1]: effective in inhibiting this enzyme
- toxicity / side effects [2]: known serious side effects

Compound: CS(=O)(=O)O.CS(=O)(=O)O.N=C(N)Nc1ccc(C(=O)Oc2ccc3cc(C(=N)N)ccc3c2)cc1 [FUTHAN, 6-amidino-2-naphthyl p-guanidinobenzoate dimethanesulfonate]
- inhibitor strength compared with aprotinin and AEBSF [3]: weaker
- inhibition of total protease activity in skin extracts [4]: efficacy of the inhibitor
- inhibition of chymotrypsin or enzymes with chymotrypsin specificity [5]: not chymotrypsin
- IC50 [6]: ~80 µM
- IC50 [7]: ~20 µM
- IC50 [8]: ~2 µM

- IC50 [14]: < 1 µM
- IC50 [15]: < 1 µM
Compound: COC(=O)[C@H](Cc1ccccc1)NC(=O)[C@@H](N)CC(=O)O [aspartame, N-L-alpha-aspartyl-L-phenylalanine 1-methyl ester] (H-Asp-Phe-OMe)
- energy and muscle pain in chronic anemia patients [9]: more energy and less muscle pain
- bone density from dental records ([10]; 150-300 mg/day over several years): bone density increase
- density of the right and left femur, mean [10, 16]: 1.2 g/cm2
- femur density relative to the density of a young adult [10, 16]: 122%
- lumbar spine bone density (L1-L4) [10, 16]: 1.74 g/cm2
- lumbar spine bone density relative to the density of a young adult [10, 16]: 148%
- pain associated with a burn [11]: relieved the pain
- bleeding times [12]: significantly increased
- platelet counts [12]: elevated
- calcification at the injured joints ([13]; P value <0.0001): increase
- cortical bone density ([13]; P value of 0.0058): increase
- quadriceps muscle mass index ([13]; P value of 0.0185): increase

Compound: Aprotinin
- inhibition of SCTE [1]: effective in inhibiting this enzyme
- toxicity / side effects [2]: known serious side effects
